{"source": "paper PMC4279419", "about": "“Angiostatic, tumor inflammatory and anti-tumor effects of CXCL4^47–70 and CXCL4L1^47–70 in an EGF-dependent breast cancer model” (Oncotarget, 2014)", "key": {"p21 in HMVEC": {"test_system": "p21 in HMVEC", "experiment": "Intracellular p21 content in HMVEC (ELISA)", "assay_type": "cell-based, human", "settings": "15 h, mean ± s.e.m.", "method": "Signaling assays were slightly adapted to the signaling molecules of interest in this study. HMVEC were stimulated with EGF (20 ng/ml) as a single stimulus or in combination with the peptides CXCL4^47–70 and CXCL4L1^47–70 (0.3 to 10 μg/ml) in order to evaluate their impact on the cell cycle-arresting p21. After 15 hours, the cells were washed three times with ice-cold PBS to stop the stimulation and lysis buffer [1 mM EDTA, 0.5% (v/v) Triton-X, 10 mM NaF, 150 mM NaCl, 1 mM DTT in PBS; pH 7.2–7.4] supplemented with a protease inhibitor cocktail (Sigma) was added. Cell residue was removed from the collected lysates by centrifugation (4°C, 10 min, 1666g). Lastly, the intracellular p21 content was determined by DuoSet® IC ELISA (cat n° DYC1047, R&D Systems) while, in parallel, total protein content was measured in a bicinchoninic acid (BCA) protein assay (Pierce, Rockford, IL)."}, "CHO/CXCR3B cells": {"test_system": "CHO/CXCR3B cells", "experiment": "CXCR3B binding (flow cytometry)", "settings": "NH2-terminally biotinylated peptides, 3 to 3000 ng/ml, data not shown", "excerpt": "(§1) We further tried to reveal the mode of action of CXCL4^47–70 and CXCL4L1^47–70. First, we excluded that either peptide still binds/activates one of the CXCR3 isoforms, the receptors for intact CXCL4 and CXCL4L1."}, "[1]": {"test_system": "human acute monocytic leukemia cells (THP-1)", "experiment": "Transendothelial multiscreen chemotaxis assay", "assay_type": "cell-based", "settings": "HMVEC monolayer, n=3 to 4; for effect on CCL5-induced transendothelial migration: peptide 1000 to 5000 ng/ml + CCL5 20 ng/ml, 3 to 5 hours, 37°C, ATPlite", "method": "Monocyte chemotaxis assays were performed on 5 μm hydrophilic polycarbonate multiscreen-MIC plates (Millipore) using the human acute monocytic leukemia cells (THP-1). To promote efficient synergy between CCL5 on one hand and CXCL4, CXCL4^47–70 or CXCL4L1^47–70 on the other hand, the upper compartment of these plates was coated with a HMVEC monolayer. HMVEC were seeded on a 0.1% gelatin layer 24 hours prior to the chemotaxis assay. The following day, dilutions of recombinant human CCL5 (PeproTech, Rocky Hill, CT), natural human CXCL4 (isolated from stimulated platelets as previously described), recombinant human CXCL4L1 (isolated from baculovirus-infected Sf9 cells as previously described), synthetic CXCL4^47–70, synthetic CXCL4L1^47–70 (both produced as described above), or combinations thereof were added to the lower compartment of the plate, in a volume of 150 μl. After removal of the HMVEC medium, 0.35 × 10^6 THP-1 cells were added to the upper wells, resuspended in phenol red-free RPMI + 0.1 g/100 ml BSA (endotoxin-free BSA; Sigma CatN° A8806) after centrifugation of the cells at 200g for 10 min. Plates were incubated at 37°C for 3 to 5 hours before quantifying the amount of cells that migrated towards the chemokine concentrations. For that purpose, we used the ATPlite kit (PerkinElmer, Waltham, MA) allowing quantitative luminescent detection of ATP, which is representative of THP-1 cell counts in the lower wells. This reaction was performed in a view white 96-well plate (PerkinElmer). A chemotactic index (CI) was calculated, defined as the ratio of luminescence after chemokine treatment and luminescence after control treatment."}, "EGF": {"test_system": "EGF", "experiment": "EGF binding (heterodimerization) assay in 96-well plates", "parameters": "species or system human", "settings": "amino-terminally biotinylated peptides; 37 °C; 2 μg/ml EGF coated; OD450; n=3", "method": "GAG, EGF and CCL5 binding were quantified in 96-well plates following a similar protocol. GAG binding was evaluated by immobilizing low molecular weight heparin (Iduron, Manchester, UK) on EpranEx plates (BD Biosciences), whereas EGF as well as CCL5 recombinant human protein (R&D Systems and PeproTech, respectively) was immobilized on high protein-binding ELISA plates (Corning life sciences, Tewksbury, MA). In brief, 25 μg/ml GAG [diluted in assay buffer 100 mM NaCl, 50 mM NaAc, pH 7.2, and 0.2% (v/v) Tween-20], 2 μg/ml EGF or 50 ng/ml CCL5 (both diluted in PBS), was coated overnight at room temperature on 96-well plates. Plates were washed three times with either assay buffer or 0.5% (v/v) Tween 20 in PBS and blocked at 37°C with buffer enriched with either 0.2% (w/v) gelatin (heparin binding assay) or 0.1% (w/v) casein (EGF or CCL5 binding assay). Subsequently, a dilution curve of biotinylated CXCL4L1^47–70 and CXCL4^47–70 peptide was pipetted on the plate and incubated at 37 °C to allow interaction with heparin, EGF or CCL5. After washing, retained biotinylated peptide was detected by peroxidase-conjugated streptavidin. Peroxidase activity was quantified by measuring the conversion of 3,3′,5,5′-tetramethylbenzidine (Sigma-Aldrich) at 450 nm."}, "CXCR3A": {"test_system": "CXCR3A", "experiment": "Calcium signaling in CXCR3A-transfectants", "assay_type": "cell-based", "settings": "CHO/CXCR3A, one representative experiment out of three; for calcium signal via CXCR3A: 2 μg/ml, fura 2, spectrofluorometer; for inhibition of CXCL10-induced calcium signaling (desensitization): peptide 2 μg/ml, CXCL10 5 ng/ml added 100 s later, fura 2", "excerpt": "We further tried to reveal the mode of action of CXCL4^47–70 and CXCL4L1^47–70. First, we excluded that either peptide still binds/activates one of the CXCR3 isoforms, the receptors for intact CXCL4 and CXCL4L1. […]\ninhibit signaling by intact CXCL10. To study interaction of CXCL447–70 and CXCL4L147–70 with CXCR3A, CHO cells stably transfected with CXCR3A were loaded with the fluorescent dye fura 2 (Struyf et al. J. Immunol. 2009, 182:666). Changes in the intracellular Ca2+ concentrations ([Ca2+]i) in response to CXCL447–70 or CXCL4L147–70 treatment were monitored using a spectrofluorometer. The line in the spectra indicates the fluorescence intensity ratio (i.e. the fluorescence intensity measured after excitation at 340 nm divided by the fluorescence intensity measured after excitation at 380 nm). The results shown (one representative experiment out of three) illustrate a desensitization experiment, in which CHO/CXCR3A cells were stimulated first with a peptide (2 µg/ml) and 100 s later with intact CXCL10 […]\npeptides induced a rise in [Ca2+]i. When the cells were stimulated with 5 ng/ml intact CXCL10 100 s after peptide treatment, the response […]\ninteract with CXCR3A. Arrows indicate the time of addition of the stimulus.\n(also on this page, place not known: www.impactjournals.com/oncotarget/ Oncotarget, Supplementary Materials 2014 CXCL4 47–70 CXCL4L1 47–70 CXCL4 47–70 CXCL4L1 47–70 CXCL4 47–70) […]"}, "CHO/CXCR3A cells": {"test_system": "CHO/CXCR3A cells", "experiment": "CXCR3A binding (flow cytometry)", "settings": "NH2-terminally biotinylated peptides, 3 to 3000 ng/ml, data not shown", "excerpt": "as §1"}, "[2]": {"settings": "peptide 3 μg/ml + EGF 20 ng/ml, n=9, p=0.039 (CXCL4^47–70), n=5, p=0.033 (CXCL4L1^47–70) versus EGF"}}, "note": "Where no end group is shown, it is not given here.", "data": [{"substance": "CXCL4L1^47–70: synthetic human carboxy-terminal peptide restricted to the last 24 amino acids of CXCL4L1, Fmoc chemistry", "values": [{"measurement": "intracellular p21 relative to control (100%), with EGF", "setting": "p21 in HMVEC; [2]", "value": "115.06 ± 17.41", "unit": "%"}, {"measurement": "specific binding to CHO/CXCR3B", "setting": "CHO/CXCR3B cells", "value": "could not detect specific binding"}, {"measurement": "effect on CCL5-induced transendothelial migration", "setting": "[1]", "value": "enhanced transendothelial migration of monocytic cells"}, {"measurement": "binding to EGF-coated plate", "setting": "EGF", "value": "equally well in a dose-dependent manner"}, {"measurement": "calcium signal via CXCR3A", "setting": "CXCR3A", "value": "Nor could we detect any calcium signal"}, {"measurement": "calcium signal via CXCR3A", "setting": "CXCR3A; listed as CXCL4L147–70", "value": "do not induce calcium signaling via CXCR3A"}, {"measurement": "inhibition of CXCL10-induced calcium signaling (desensitization)", "setting": "CXCR3A", "value": "neither peptide (2 μg/ml) was capable of inhibiting calcium signaling"}, {"measurement": "inhibition of CXCL10-induced calcium signaling (desensitization)", "setting": "CXCR3A; listed as CXCL4L147–70", "value": "equal to the signal obtained after buffer stimulation"}, {"measurement": "specific binding to CHO/CXCR3A", "setting": "CHO/CXCR3A cells", "value": "could not detect specific binding"}]}, {"substance": "CXCL4^47–70: synthetic human carboxy-terminal peptide restricted to the last 24 amino acids of CXCL4, Fmoc chemistry (NGRKICLDLQAPLYKKIIKKLLES; not fully specified (N-terminus))", "values": [{"measurement": "intracellular p21 relative to control (100%), with EGF", "setting": "p21 in HMVEC; peptide 1 μg/ml + EGF 20 ng/ml, n=6, p=0.039 versus EGF", "value": "106.90 ± 15.12", "unit": "%"}, {"measurement": "intracellular p21 relative to control (100%), with EGF", "setting": "p21 in HMVEC; [2]", "value": "100.02 ± 8.67", "unit": "%"}, {"measurement": "intracellular p21 relative to control (100%), with EGF", "setting": "p21 in HMVEC; peptide 10 μg/ml + EGF 20 ng/ml, n=5, p=0.005 versus EGF", "value": "125.51 ± 15.05", "unit": "%"}, {"measurement": "specific binding to CHO/CXCR3B", "setting": "CHO/CXCR3B cells", "value": "could not detect specific binding"}, {"measurement": "effect on CCL5-induced transendothelial migration", "setting": "[1]", "value": "enhanced transendothelial migration of monocytic cells"}, {"measurement": "stimulation of monocytic cell chemotaxis compared to CXCL4L1^47–70", "setting": "[1]; peptide 1000 to 5000 ng/ml with CCL5 20 ng/ml", "value": "more efficiently stimulated monocytic cell chemotaxis compared to CXCL4L1^47–70"}, {"measurement": "binding to EGF-coated plate", "setting": "EGF", "value": "equally well in a dose-dependent manner"}, {"measurement": "calcium signal via CXCR3A", "setting": "CXCR3A", "value": "Nor could we detect any calcium signal"}, {"measurement": "calcium signal via CXCR3A", "setting": "CXCR3A; listed as CXCL447–70", "value": "do not induce calcium signaling via CXCR3A"}, {"measurement": "inhibition of CXCL10-induced calcium signaling (desensitization)", "setting": "CXCR3A", "value": "neither peptide (2 μg/ml) was capable of inhibiting calcium signaling"}, {"measurement": "inhibition of CXCL10-induced calcium signaling (desensitization)", "setting": "CXCR3A; listed as CXCL447–70", "value": "equal to the signal obtained after buffer stimulation"}, {"measurement": "specific binding to CHO/CXCR3A", "setting": "CHO/CXCR3A cells", "value": "could not detect specific binding"}]}]}
